The first data set relates to Karpas-299 cells. Description: Efficacy in animal model of anaplastic large cell lymphoma (Karpas-299 tumors). The format is in vivo, SCID-mice. The following applies: 30 mg/kg daily by gavage, 23 days; ratio of average tumor volume treatment/control. The procedure:
(§1) SCID-mice with tumors that have developed as a result of the introduction of Karpas-299 cells were used for the studies. When tumor size reached 220 mm^3 animals were divided into the treatment and control groups and were randomized by tumor size. The control animals received daily 0.3 ml of 0.5% of methylcellulose solution, animals of the treatment group—0.3 ml of 0.5% of methylcellulose suspension containing the drug in a test dose. The solutions were administered by gavage. The treatment continued for 23 days. The ratio of the average volume for the treatment/control groups (% T/C) was calculated after treatment to determine the effectiveness of inhibition of tumor growth. The analysis of the statistical significance using Dunnett's test was performed for the data collection. Effectiveness of the test compounds in a dose of 30 mg/kg is introduced below.
As for `CC(c1c(Cl)ccc(F)c1Cl)N1CCNc2nnc(C(=O)Nc3ccc(C(=O)N4CCCC4)cc3)cc21` (stereo not shown) [drawing 243], the “% T/C” value is under 40%.

Turning to `Fc1ccc(Cl)c(CN2CCNc3nnc(-c4nnc(C5CCNCC5)[nH]4)cc32)c1Cl` [drawing 246], the “% T/C” value is reported as under 40%.

For the molecule `Clc1ccc(Cl)c(CN2CCNc3nnc(-c4nnc(C5CCNCC5)[nH]4)cc32)c1` [drawing 242], the “% T/C” value is under 40%.

For `Clc1ccc(Cl)c(CN2CCNc3nnc(-c4nnc(C5CCNCC5)o4)cc32)c1` [drawing 247], the “% T/C” value is reported as under 40%.

For `O=C(Nc1ccc(N2CCOCC2)cc1)c1cc2c(nn1)NCCN2Cc1cc(Cl)ccc1Cl` [drawing 245], the “% T/C” value is under 40%.

For the molecule `CN1CCN(C(=O)c2ccc(NC(=O)c3cc4c(nn3)NCCN4Cc3cc(Cl)ccc3Cl)cc2)CC1` [drawing 244], the “% T/C” value is under 40%.

Another data set has as its system Karpas-299. Description: Antiproliferative activity on KARPAS-299 cells (MTS). The data set is classed as cell-based. The following applies: Homo sapiens, concentration at which the number of living cells is reduced 2-fold compared with absence of compound. The procedure: Furthermore, antiproliferative activity of the compounds of this invention can be studied on cell lines KARPAS-299 of anaplastic large cell lymphoma according to the following procedure. KARPAS-299 cells cultured in RPMI 1640 growth medium, are transferred in duplicate to 96-well culture plate (10,000 cells per well) and a solution of the analytes in a growth medium is added to them at various concentrations (final volume in each well—100 μl). The solids were dissolved in DMSO and then the solution was diluted with DMSO to the desired concentration, mixed with an equal volume of growth medium and transferred to wells with the cells. The final concentration of compounds ranged from 0.5 nM to 10 μM. DMSO was used as a control (in the same amount as that of adding solutions of substances). After the cells incubation with the compounds for 72 hours, the number of viable cells was determined. For this purpose, old medium was removed, 100 μl of fresh medium and 40 μl of MTS solution, containing 5 mg/ml PBS were added to each well. The plate was incubated for 2 hours at 37° C., then 100 μl of DMSO was added to each well and mixed for 1 minute. Then, the optical density was determined at 490 nm and percentage of inhibition of proliferation was calculated in comparison with the control (containing no analytes).
Turning to `Fc1ccc(Cl)c(CN2CCNc3nnc(-c4nnc(C5CCNCC5)[nH]4)cc32)c1Cl` [drawing 233], the IC50 was under 100 nM.

As for `C[C@H](c1c(Cl)ccc(F)c1Cl)N1CCNc2nnc(-c3nc(C4CCNCC4)no3)cc21`, the concentration for half-maximal inhibition (IC50) is under 100 nM.

The molecule `Fc1ccc(Cl)c(CN2CCNc3nnc(-c4ccc(N5CCOCC5)cc4)cc32)c1Cl` had an IC50 of under 100 nM.

In the case of `Clc1ccc(Cl)c(CN2CCNc3nnc(-c4nnc(C5CCNCC5)[nH]4)cc32)c1` [drawing 218], the IC50 was under 100 nM.

Molecule `Clc1ccc(Cl)c(CN2CCNc3nnc(CNC4CCNCC4)cc32)c1` came in with a concentration for half-maximal inhibition (IC50) of under 1000 nM.

Turning to `C[C@H](c1c(Cl)ccc(F)c1Cl)N1CCNc2nnc(Nc3cccc(N4CCOCC4)c3)cc21`, the IC50 is under 100 nM.

Regarding `CC(c1c(Cl)ccc(F)c1Cl)N1CCNc2nnc(C(=O)Nc3ccc(C(=O)N4CCCC4)cc3)cc21` (stereo not shown) [drawing 228], the IC50 is under 100 nM.

Regarding `CN1CCN(C(=O)c2ccc(NC(=O)c3cc4c(nn3)NCCN4Cc3cc(Cl)ccc3Cl)cc2)CC1` [drawing 231], the IC50 was under 100 nM.

As for `Clc1ccc(Cl)c(CN2CCNc3nnc(-c4nnc(C5CCNCC5)o4)cc32)c1` [drawing 234], the 50% inhibitory concentration (IC50) is under 100 nM.

For `CN1CCC(c2nnc(-c3cc4c(nn3)NCCN4Cc3c(Cl)ccc(F)c3Cl)o2)CC1`, the 50% inhibitory concentration (IC50) was under 100 nM.

In turn, `Fc1ccc(Cl)c(CN2CCNc3nnc(-c4nnc(C(F)(F)F)[nH]4)cc32)c1Cl` returned an IC50 of under 1000 nM.

As for `C[C@H](c1c(Cl)ccc(F)c1Cl)N1CCNc2nnc(-c3ccc(N4CCCC4)nc3)cc21`, the IC50 is under 100 nM.

For the molecule `C[C@H](c1cc(Cl)ccc1C(F)(F)F)N1CCNc2nnc(Nc3cccc(N4CCOCC4)c3)cc21`, the concentration for half-maximal inhibition (IC50) was under 100 nM.

Consider `COc1cc(N2CCC(N(C)C)CC2)ccc1Nc1cc2c(nn1)NCCN2Cc1c(Cl)ccc(F)c1Cl`, for which the IC50 was under 100 nM.

The molecule `O=C(Nc1ccc(N2CCOCC2)cc1)c1cc2c(nn1)NCCN2Cc1cc(Cl)ccc1Cl` [drawing 232] returned an IC50 of under 100 nM.

Molecule `O=C(NCCc1ccccc1)c1cc2c(nn1)NCCN2Cc1c(Cl)ccc(F)c1Cl` returned a 50% inhibitory concentration (IC50) of under 1000 nM.

As for `O=C(c1cc2c(nn1)NCCN2Cc1c(Cl)ccc(F)c1Cl)N1CCN(c2ccccc2)CC1`, the IC50 was under 100 nM.

`CC(C)c1noc(-c2cc3c(nn2)NCCN3Cc2c(Cl)ccc(F)c2Cl)n1` returned a half-maximal inhibitory concentration (IC50) of under 1000 nM.

System in the next data set: not given
Test: not given
To be noted: in vivo; cited from earlier work.
Take `C[C@@H](Oc1cc(-c2cnn(C3CCNCC3)c2)cnc1N)c1c(Cl)ccc(F)c1Cl` [Crizotinib]: the “penetration through the blood-brain barrier” value is on record as “does not penetrate through the blood-brain barrier”.

A further data set concerns NCI-H3122 cells. Kind of data set: Efficacy in animal model of non-small cell lung cancer (NCI-H3122 tumors). The data set is classed as in vivo, male athymic mice. To be noted: 30 mg/kg daily by gavage, 20 days; ratio of average tumor volume treatment/control. The procedure:
as §1, with “The male athymic mice” for “SCID-mice with tumors that have developed as a result of the introduction of Karpas-299 cells”, “NCI-H3122 cells in an amount of 1×10^7 were administered in the form of 0.2 ml Matrigel solution (BD Pharmingen) in the left leg of the mouse under ketamine-xylazine anesthesia. One week after cells injection mice” for “When tumor size reached 220 mm^3 animals”, “and” for “and were”, “size. Tumor volume was calculated according to the formula V=0.5×W^2×L.” for “size.”, “group −0.3” for “group—0.3”, “20” for “23”
`CN1CCN(C(=O)c2ccc(NC(=O)c3cc4c(nn3)NCCN4Cc3cc(Cl)ccc3Cl)cc2)CC1` [drawing 238]: the “% T/C” value is under 40%.

With `Clc1ccc(Cl)c(CN2CCNc3nnc(-c4nnc(C5CCNCC5)[nH]4)cc32)c1` [drawing 236], the “% T/C” value is listed as under 40%.

Regarding `Clc1ccc(Cl)c(CN2CCNc3nnc(-c4nnc(C5CCNCC5)o4)cc32)c1` [drawing 241], the “% T/C” value is given as under 40%.

In the case of `O=C(Nc1ccc(N2CCOCC2)cc1)c1cc2c(nn1)NCCN2Cc1cc(Cl)ccc1Cl` [drawing 239], the “% T/C” value was under 40%.

Turning to `Fc1ccc(Cl)c(CN2CCNc3nnc(-c4nnc(C5CCNCC5)[nH]4)cc32)c1Cl` [drawing 240], the “% T/C” value was under 40%.

For the molecule `CC(c1c(Cl)ccc(F)c1Cl)N1CCNc2nnc(C(=O)Nc3ccc(C(=O)N4CCCC4)cc3)cc21` (stereo not shown) [drawing 237], the “% T/C” value is under 40%.

As a reminder, the IC50 is the concentration needed to halve the response being measured.
